pIC50: −log10 of the molar value. “And” between values parts separate entries of the source, which are not always exact repeats. Equal entries are not always repeated. Where two headings read alike, the source gives them in different places.
Tests used:
[1] = system: FCR-3 Plasmodium falciparum; parameters: method as in doi:10.1016/S0040-4020(98)00818-7; conditions: chloroquine-resistant FCR-3 strain; cited from earlier work
P. falciparum W2 = conditions: drug-resistant W2 strain; Figure 1; cited from earlier work
P. falciparum 3D7 = test: SYBR Green based parasite proliferation assay, drug-sensitive 3D7 strain; format: cell-based, Plasmodium falciparum
P. falciparum Dd2 [2] = test: SYBR Green based parasite proliferation assay, chloroquine-resistant Dd2 strain; format: cell-based, Plasmodium falciparum
P. falciparum HB3 = conditions: Wood group, cited from earlier work
P. falciparum Dd2 [3] = conditions: Wood group, cited from earlier work
[4] = Microsomal stability assay, human liver microsomes; format: in vitro ADME; conditions: pH 7.4
Procedure: Reference compound Ketanserin
Sample size Duplicates (n=2)
Bioanalytical method LC-MS/MS
Microsomal Liver Weight per Hepatic
Species Protein Kilogram of Body Scaling Factora Blood Flow
per Gram of Liver Weight (mL/min/kg)
Test Article Species Percent Remaining (%) T1/2 Clint
1. Historic data of ketanserin:
Detection method UPLC-MS/MS-29(API6500+)
Internal standard (s) Osalmid, imipramine
MS conditions Positive ion, ESI
Mobile phase A: 0.025%FA/1mM NH4OAc/H2O
2. Reference compouds(Ketanserin) and test compounds spiking solution: […]

in vitro = conditions: mouse, microsomes, pH 7.4
[5] = microsomes; cited from earlier work
[6] = microsomes; cited from earlier work; remark: listed apart in the source
[7] = drug-sensitive 3D7 strain, 72 h incubation, n = 3, read-out: IC50
[8] = drug-resistant Dd2 strain, 72 h incubation, n = 3, read-out: IC50

With 6-hydroxy-kalihinene [compound 3] as the compound, how does the pIC50 [1] read?
The pIC50 was 7.10.

With 7,20-diisocyanoadociane [compound 4] as the compound, how does the pIC50 (P. falciparum W2) read?
Its pIC50 is 7.89.

For 10-isocyano-4-cadinene [(±)-15], which “IC50” value (P. falciparum 3D7; 3D7 strain) is on record?
The value was 0.1631 µg/mL.

What about the pIC50 (P. falciparum 3D7; [7]) of the same compound?
Its pIC50 is 6.15.

What about the “IC50” value (P. falciparum Dd2 [2]; Dd2 strain) of the same compound?
The value was 0.057 µg/mL.

And the pIC50 (P. falciparum Dd2 [2]; [8])?
Its pIC50 is 6.61.

What about the pIC50 (P. falciparum HB3; HB3 (chloroquine-sensitive)) of the same compound?
Its pIC50 is 5.66.

What about the pIC50 (P. falciparum Dd2 [3]; Dd2 (chloroquine-resistant)) of the same compound?
Its pIC50 is 5.66.

With `[C-]#[N+]C1C2C(C(C)C)CCC(C)([N+]#[C-])C2CCC1(C)O` (racemic) [(±)-22] as the compound, how does the pIC50 (P. falciparum HB3; HB3) read?
Its pIC50 is 7.10.

What about the pIC50 (P. falciparum Dd2 [3]; Dd2) of the same compound?
The pIC50 was 7.10.

With `CCN(CC)CCCC(C)Nc1ccnc2cc(Cl)ccc12` (stereo not shown) [Chloroquine] as the compound, how does the IC50 (P. falciparum 3D7; Plasmodium falciparum, 3D7, read-out: Chloroquine IC50 [µM], 3D7 strain, antimalarial standard run alongside each compound) read?
Its IC50 is 0.0063 µM.

What about the pIC50 (P. falciparum 3D7; read-out: Chloroquine IC50, 3D7 strain, antimalarial standard run alongside each compound) of the same compound?
The pIC50 was 8.28 and 8.18 and 8.23 and 8.04 and 8.05 and 8.24 and 8.21.

And the IC50 (P. falciparum Dd2 [2]; Plasmodium falciparum, DD2, read-out: Chloroquine IC50 [µM], Dd2 strain, antimalarial standard run alongside each compound)?
The IC50 was 0.0275 µM.

And the pIC50 (P. falciparum Dd2 [2]; read-out: Chloroquine IC50, Dd2 strain, antimalarial standard run alongside each compound)?
The pIC50 was 7.49 and 7.47 and 7.30 and 7.28.

For `O=C(c1ccc(F)cc1)C1CCN(CCn2c(=O)[nH]c3ccccc3c2=O)CC1` [ketanserin], which CLint scaled at 1 µM ([4]; human, microsomes) is on record?
The CLint scaled at 1 µM was 40 mL/min/kg.

And the remaining at 5 min, 1 µM ([4]; human, microsomes)?
The remaining at 5 min, 1 µM was 88.4%.

What about the remaining at 0.25 h, 1 µM ([4]; human, microsomes) of the same compound?
Its remaining at 0.25 h, 1 µM is 77%.

And the remaining at 0.5 h, 1 µM ([4]; human, microsomes)?
The remaining at 0.5 h, 1 µM was 62.5%.

And the remaining at 0.75 h, 1 µM ([4]; human, microsomes)?
The remaining at 0.75 h, 1 µM was 47.3%.

What about the half-life at 1 µM ([4]; human liver microsomes 0.5 mg/mL, 1 µM, 37°C) of the same compound?
The half-life at 1 µM was 43.4 min.

And the CLint scaled at 1 µM (in vitro)?
The CLint scaled at 1 µM was 267 mL/min/kg.

And the half-life at 1 µM (in vitro)?
Its half-life at 1 µM is 20.4 min.

What about the remaining at 0 h, 1 µM (in vitro) of the same compound?
Its remaining at 0 h, 1 µM is 100%.

And the remaining at 5 min, 1 µM (in vitro)?
The remaining at 5 min, 1 µM was 79.9%.

What about the remaining at 0.25 h, 1 µM (in vitro) of the same compound?
Its remaining at 0.25 h, 1 µM is 55.5%.

And the remaining at 0.5 h, 1 µM (in vitro)?
Its remaining at 0.5 h, 1 µM is 32.9%.

What about the remaining at 0.75 h, 1 µM (in vitro) of the same compound?
The remaining at 0.75 h, 1 µM was 21.7%.

And the “T1/2 (Human), historic data” value [5]?
Its value is 39.69 ± 6.36 min.

And the “T1/2 (Mouse), historic data” value [6]?
Its value is 18.27 ± 3.89 min.

With kalihinol A [compound 1] as the compound, how does the pIC50 [1] read?
The pIC50 was 8.92.

Which “IC50” value (P. falciparum 3D7; 3D7 strain) does the source give for kalihinol B [compound 2] here?
The value was 0.0033 µg/mL.

What about the pIC50 (P. falciparum 3D7; [7]) of the same compound?
The pIC50 was 8.08.

What about the “IC50” value (P. falciparum Dd2 [2]; Dd2 strain) of the same compound?
Its value is 0.0018 µg/mL.

What about the pIC50 (P. falciparum Dd2 [2]; [8]) of the same compound?
Its pIC50 is 8.34.
